Test system: Plasmodium berghei
Assay: Luciferase/luciferin-expressing antifolate-resistant parasites were used to infect a culture of HepG2 cells that were pre-incubated with compounds. Infected hepatocytes emit light due to the luciferase reaction. Assay results are presented as the percent inhibition of light emission compared to control. […]
Type: functional
Conditions: sporozoite; for IC50: read-out: LUCIFERASE INFECTION ASSAY - IC50; for IC90: read-out: LUCIFERASE INFECTION ASSAY - IC90

O=C1/C(=C\c2ccncc2)C(c2ccccc2)Oc2ccccc21 (stereo not drawn)
IC50: 9.06 µM | IC90: 9.96 µM

O=C1c2ccccc2C(=Cc2ccc(C(F)(F)F)cc2)c2ccccc21
IC50: 3.58 µM | IC90: 4.1 µM

CN(C)c1ccc(/C=C(\C#N)c2nc3ccccc3[nH]2)cc1
IC50: > 11.4 µM | IC90: > 11.4 µM

FC(F)(F)Oc1ccc(N=C(S)Nc2ccc(OC(F)(F)F)cc2)cc1
IC50: > 8.33 µM | IC90: > 8.33 µM

S=C(NCc1ccco1)Nc1ccc(Oc2ccc(Cl)cc2)cc1
IC50: > 9.2 µM | IC90: > 9.2 µM

CCCCCCCCCCCCN1C(=O)CSC1c1cccnc1 (stereo not drawn)
IC50: > 9.47 µM | IC90: > 9.47 µM

O=S(=O)(c1ccc2ccccc2c1)N1CCN(c2ncc(C(F)(F)F)cc2Cl)CC1
IC50: > 7.24 µM | IC90: > 7.24 µM

N#C/C(=N\Nc1ccc(Cl)cc1)C(=O)c1ccsc1
IC50: > 11.4 µM | IC90: > 11.4 µM

CCCCCCCCCCCCSC(=S)c1c(C)[nH]n(-c2ccccc2)c1=O
IC50: > 7.88 µM | IC90: > 7.88 µM

CCCSc1ccc2c3c(cccc13)C(=O)N(CCc1ccccn1)C2=O
IC50: > 8.77 µM | IC90: > 8.77 µM

CC(NC(=S)Nc1ccc(Oc2ccc(Cl)cc2)cc1)c1ccccc1 (stereo not drawn)
IC50: 7.1 µM | IC90: > 8.62 µM

Brc1ccc(Nn2c(-c3ccccc3)nc3c2C2C=CC=CC2C=N3)cc1 (stereo not drawn)
IC50: 3.6 µM | IC90: 5.07 µM

CC(C)c1ccc(Nc2ncnc(N)n2)c(Br)c1
IC50: > 10.7 µM | IC90: > 10.7 µM

Cc1cc(I)ccc1N1C(=O)C=CC1=O
IC50: 5.55 µM | IC90: > 10.5 µM

COc1ccccc1NC(=S)NC(c1ccccc1)c1ccccc1
IC50: > 9.47 µM | IC90: > 9.47 µM

CS(=O)(=O)Nc1ccc(S(=O)(=O)NC23CC4CC(CC(C4)C2)C3)cc1
IC50: > 8.58 µM | IC90: > 8.58 µM

COc1ccc(-c2ccc(C=C(C#N)C#N)s2)cc1
IC50: 0.403 µM | IC90: 0.914 µM

Cc1noc(/C=C/c2cc(C(F)(F)F)cc(C(F)(F)F)c2)c1[N+](=O)[O-]
IC50: > 9.01 µM | IC90: > 9.01 µM

OC(c1ccccc1)c1cccs1 (stereo not drawn)
IC50: > 17.3 µM | IC90: > 17.3 µM

CCOC(=O)C1=C(N)n2c(s/c(=C\c3ccc(OC)cc3)c2=O)=CC1c1ccc(OC)cc1 (stereo not drawn)
IC50: > 7.1 µM | IC90: > 7.1 µM

CCCN1CCCC(NC(=S)Nc2ccc(Br)cc2C)C1 (stereo not drawn)
IC50: > 8.91 µM | IC90: > 8.91 µM

COc1cc(NC(=S)Nc2ccc(Cl)cc2)cc(C(F)(F)F)c1
IC50: > 9.15 µM | IC90: > 9.15 µM

C=C1CC(=O)N(c2ccc(OC(F)(F)F)cc2)C1=O
IC50: > 12.2 µM | IC90: > 12.2 µM

COCCCNC(=S)N/N=C/c1ccc(Cl)c(Cl)c1
IC50: > 10.3 µM | IC90: > 10.3 µM

c1ccc2cc(-c3csc(Nc4cccc5ccccc45)n3)ccc2c1
IC50: > 9.36 µM | IC90: > 9.36 µM

CC(C)Cc1ccc(C(=O)CC(Sc2ccccc2N)c2ccc(Cl)cc2)cc1 (stereo not drawn)
IC50: 0.135 µM | IC90: 1.03 µM

N#Cc1ccccc1OC(=O)Nc1ccc(OC(F)(F)F)cc1
IC50: 3.31 µM | IC90: 3.62 µM

Cc1ccc(NC(=S)Nc2ccc(Cl)cc2)cc1F
IC50: > 11.2 µM | IC90: > 11.2 µM

Cc1ccc(Cl)cc1NC(=S)N/N=C\c1cccc2ccccc12
IC50: 0.805 µM | IC90: 1.85 µM

CCCC(/N=C/c1cc(Cl)ccc1O)/N=C/c1cc(Cl)ccc1O
IC50: > 9.03 µM | IC90: > 9.03 µM

COc1ccc(OC)c(S(=O)(=O)Nc2ccc(S(=O)(=O)Nc3cc(C(F)(F)F)cc(C(F)(F)F)c3)cc2)c1
IC50: > 5.65 µM | IC90: > 5.65 µM

S=C(N/N=C\c1cccc2ccccc12)Nc1cccc(Cl)c1Cl
IC50: > 8.82 µM | IC90: > 8.82 µM

CC1C/C(=N\Nc2cc(Cl)cc(Cl)c2)c2cc(Cl)ccc2S1(=O)=O (stereo not drawn)
IC50: 6.27 µM | IC90: > 8.17 µM

CC(C)(C)c1ccc(C(=O)Nc2cc(Cl)cc(Cl)c2)cc1
IC50: > 10.2 µM | IC90: > 10.2 µM

CC(C)c1ccc(C2C3CCc4ccccc4C3=NN2C)cc1 (stereo not drawn)
IC50: 0.0716 µM | IC90: 0.553 µM

O=C(Nc1ccc(Cl)cc1)Nc1nc(-c2cc(Cl)c(Cl)s2)cs1
IC50: 1.13 µM | IC90: 1.77 µM

Cc1cc(C)c(CSCCNC2=CC(=O)CC(c3ccc(Cl)cc3)C2)c(C)c1 (stereo not drawn)
IC50: > 7.97 µM | IC90: > 7.97 µM

COc1ccc(CCN2CSC(=S)N(CCc3ccc(OC)c(OC)c3)C2)cc1OC
IC50: > 7.13 µM | IC90: > 7.13 µM

S=C(N/N=C/c1ccc(Cl)cc1)Nc1cc(Cl)ccc1Cl
IC50: > 9.2 µM | IC90: > 9.2 µM

N#C/C(=C\c1ccccc1Cl)c1nc2ccccc2[nH]1
IC50: > 11.8 µM | IC90: > 11.8 µM

O=C(Nc1ccc(-n2nc(C(F)(F)F)cc2C(F)(F)F)cc1)Nc1cc(Cl)cc(Cl)c1
IC50: 1.83 µM | IC90: 2.08 µM

O=c1nc(SCc2ccc(Cl)cc2Cl)[nH]c2ccccc12
IC50: > 9.79 µM | IC90: > 9.79 µM

N=C1C(=S)N(c2ccc(Cl)c(Cl)c2)C(=O)N1c1ccc(Cl)c(Cl)c1
IC50: > 7.87 µM | IC90: > 7.87 µM

O=C(CC12CC3CC(CC(C3)C1)C2)Nc1ccc(C(F)(F)F)cc1
IC50: > 9.78 µM | IC90: > 9.78 µM

CCc1ccc(-n2nnnc2C/C=N/Nc2ccc(F)cc2)cc1
IC50: > 10.2 µM | IC90: > 10.2 µM

Cc1ccc(N2C(=O)C=CC2=O)cc1C
IC50: 6.57 µM | IC90: 12.2 µM

O=C1N=C(N2CCCCC2)S/C1=C(/C=C(CC(=O)c1ccccc1)c1ccccc1)c1ccccc1
IC50: > 6.7 µM | IC90: > 6.7 µM

CC(=O)N(/N=C/c1ccc(C(F)(F)F)cc1)C1=NN(C(C)=O)C(c2ccc(C(F)(F)F)cc2)S1 (stereo not drawn)
IC50: > 6.57 µM | IC90: > 6.57 µM

ONC(=Nc1cccc(C(F)(F)F)c1)c1ccccc1
IC50: > 11.8 µM | IC90: > 11.8 µM

Cc1cccc(C)c1NC(=O)NCCSCc1c(Cl)cccc1Cl
IC50: > 8.61 µM | IC90: > 8.61 µM

Cc1cc(Cl)ccc1NC(N)=NN
IC50: > 10.1 µM | IC90: > 10.1 µM

Cc1ccc(N2C(=O)C=CC2=O)cc1N1C(=O)C=CC1=O
IC50: 7.78 µM | IC90: > 11.7 µM

O=C(Nc1ccc([N+](=O)[O-])cc1)n1nccc1-c1ccc(-c2cccs2)s1
IC50: 7.77 µM | IC90: > 8.32 µM

C=CCNC(=S)Nc1ccc(Oc2cc(C(F)(F)F)cc(C(F)(F)F)c2)cc1
IC50: 3.04 µM | IC90: 6.91 µM

CC(C)(C)c1ccc(NC(=S)NCCCCCCNC(=S)Nc2ccc(C(C)(C)C)cc2)cc1
IC50: > 6.62 µM | IC90: > 6.62 µM

COc1ccc(/C=C2\CN(Cc3ccccc3)CC3(C=NN(CCO)C3c3ccc(OC)cc3)C2)cc1 (stereo not drawn)
IC50: > 6.63 µM | IC90: > 6.63 µM

FC(F)(F)c1ccc(/C=N/Nc2c(Cl)cc(C(F)(F)F)cc2Cl)cc1
IC50: > 8.23 µM | IC90: > 8.23 µM

O=C(Nc1ccc(Oc2cccc3cccnc23)cc1)c1cccs1
IC50: > 9.53 µM | IC90: > 9.53 µM

N=C(NOC(=O)Nc1ccc(OC(F)(F)F)cc1)c1cc(Cl)c(N)c(Cl)c1
IC50: > 7.8 µM | IC90: > 7.8 µM

COc1ccc2c(c1)CC/C(=C\c1ccc(C(C)C)cc1)C2=O
IC50: > 10.8 µM | IC90: > 10.8 µM

COc1ccc2cc(/C(C)=N/OC(=O)Nc3cc(Cl)cc(Cl)c3)ccc2c1
IC50: 4.08 µM | IC90: 8.12 µM

O=C(Nc1cccc(Cl)c1)n1nccc1-c1ccc(-c2cccs2)s1
IC50: > 8.55 µM | IC90: > 8.55 µM

CCCc1cc(=O)oc2cc(OCC(=O)NNC(=S)NC(=O)c3ccc(Cl)cc3)ccc12
IC50: > 6.96 µM | IC90: > 6.96 µM

CC1=NN(c2ccc(C)cc2)C(=O)C1=C1SCCS1
IC50: 1.99 µM | IC90: > 11.4 µM

CC(=O)N(/N=C/c1ccc(Cl)cc1)C1=NN(C(C)=O)C(c2ccc(Cl)cc2)S1 (stereo not drawn)
IC50: > 7.58 µM | IC90: > 7.58 µM

CCN(CC)c1ccc(NC(=O)c2c(-c3c(Cl)cccc3Cl)noc2C)c(N(CC)CC)n1
IC50: > 6.73 µM | IC90: > 6.73 µM

COc1ccc(C(=O)Nc2ccc(Oc3cc(C(F)(F)F)cc(C(F)(F)F)c3)cc2)cc1
IC50: 0.486 µM | IC90: 2.35 µM

CC(=O)Nc1ccc(S(=O)(=O)Oc2ccc(C)cc2[N+](=O)[O-])cc1
IC50: > 9.42 µM | IC90: > 9.42 µM

COc1cc(/C=N/NC(=S)Nc2cc(Cl)ccc2Cl)ccc1OS(=O)(=O)c1ccc(C)cc1
IC50: > 6.29 µM | IC90: > 6.29 µM

O=C(Nc1cccc(C(F)(F)F)c1)c1ccc(-c2ccccc2F)cc1
IC50: > 9.18 µM | IC90: > 9.18 µM

O=C1Nc2ccccc2/C1=C/c1ccc(C(F)(F)F)cc1Cl
IC50: > 10.2 µM | IC90: > 10.2 µM

COc1ccccc1C1CCN(c2ccc([N+](=O)[O-])c(C(F)(F)F)c2)CC1
IC50: > 8.68 µM | IC90: > 8.68 µM

CCCc1c(Cc2c(F)cccc2Cl)c(=O)oc2cc(OC(=O)c3ccccc3Cl)ccc12
IC50: > 6.8 µM | IC90: > 6.8 µM

CCCS(=O)(=O)/C(C#N)=C/c1ccc(-c2ccc(OC)cc2)s1
IC50: 1.09 µM | IC90: 2.37 µM

O=C1OC(CC(=O)c2csc3ccccc23)c2ccccc21 (stereo not drawn)
IC50: 6.16 µM | IC90: 8.63 µM

O=C1N(CN2CCCCC2)c2ccc(Br)cc2C12OCCO2
IC50: > 8.99 µM | IC90: > 8.99 µM

CC(C)(C)c1ccc(C(=O)Nc2ccc(Oc3ccc(Cl)cc3)cc2)cc1
IC50: > 8.69 µM | IC90: > 8.69 µM

N#C/C(=C\C=C\c1ccccc1)c1cccc(Cl)c1
IC50: > 12.4 µM | IC90: > 12.4 µM

CC(C)(C)C(=O)Nc1ccccc1Sc1ccc([N+](=O)[O-])c(Sc2ccccc2NC(=O)C(C)(C)C)n1
IC50: > 6.13 µM | IC90: > 6.13 µM

O=c1c(Cl)c2[nH]c3ccccc3nc-2c2ccccc12
IC50: > 11.8 µM | IC90: > 11.8 µM

CC(C)(C)c1ccc(C(=O)Nc2ccc(C(F)(F)F)cc2)s1
IC50: 0.561 µM | IC90: 4.36 µM

COc1cc(C)c2c(c1)C=CC1C2CCC2(C)C(O)CCC12 (stereo not drawn)
IC50: > 11.1 µM | IC90: > 11.1 µM

Cc1ccc(N2C(=N)C(=S)N(c3ccc(Cl)c(Cl)c3)C2=O)cc1
IC50: > 9.06 µM | IC90: > 9.06 µM

O=C1C=CC(=O)N1c1ccccc1Cl
IC50: 6.18 µM | IC90: > 15.9 µM

COc1ccccc1N1C(=O)C=CC1=O
IC50: > 16.2 µM | IC90: > 16.2 µM

O=C1C=CC(=O)N1c1cccc(Cl)c1
IC50: > 15.9 µM | IC90: > 15.9 µM

Cc1onc(-c2c(F)cccc2Cl)c1C(=O)Nc1ccc(Sc2ccccc2)nc1Sc1ccccc1
IC50: 0.182 µM | IC90: 2.15 µM

NC(=O)N/N=C/c1ccc(Cl)cc1
IC50: > 16.7 µM | IC90: > 16.7 µM

S=C(NCc1ccc(Cl)c(Cl)c1)Nc1cccnc1
IC50: > 10.6 µM | IC90: > 10.6 µM
